Data on 32 compounds can be found in ChEMBL document CHEMBL3399926, “Synthesis and structure-activity relationships of boswellic acid derivatives as potent VEGFR-2 inhibitors” (Bioorg Med Chem, 2015).

The test system of assay [1] is HUVEC. Briefly: Antiproliferation activity against HUVEC cells after 48 hrs by CCK-8 assay. The following applies: Homo sapiens. The class given is functional, cell-based. Background: Tetrazolium dyes change colour on reduction, which living cells bring about.
For assay [2], the system named is HUVEC. Kind of assay: Induction of apoptosis in HUVEC cells. The class given is functional, cell-based. The following applies: Homo sapiens.

One may read the IC50 as the midpoint of a concentration-inhibition curve. A lower IC50 goes with higher potency. Regarding `CC(=O)N[C@H]1CC[C@@]2(C)[C@@H](CC[C@]3(C)[C@@H]2C(=O)C=C2[C@@H]4[C@@H](C)[C@H](C)CC[C@]4(C)CC[C@]23C)[C@@]1(C)C(=O)O`, in assay [1], half-maximal inhibition (IC50) was put at 47.5 µM.

Take `CC(=O)O[C@@H]1CC[C@@]2(C)[C@@H](CC[C@]3(C)[C@@H]2C(=O)C=C2[C@@H]4[C@@H](C)[C@H](C)CC[C@]4(C)CC[C@]23C)[C@@]1(C)C(=O)NCCN`: the IC50 in assay [1] is 3.76 µM.

As to `CO/N=C1\CC[C@@]2(C)[C@@H](CC[C@]3(C)[C@@H]2C(=O)C=C2[C@@H]4[C@@H](C)[C@H](C)CC[C@]4(C)CC[C@]23C)[C@@]1(C)C(=O)O`, the IC50 in assay [1] worked out at 13.1 µM.

The compound `C[C@H]1[C@H](C)CC[C@]2(C)CC[C@]3(C)C(=CC(=O)[C@@H]4[C@@]5(C)Cc6cn[nH]c6[C@](C)(C(=O)O)[C@@H]5CC[C@]43C)[C@H]12` had a 50% inhibitory concentration (IC50) in assay [1] of 2.13 µM. Moreover, the Activity entry in assay [2] is “Dose-dependent effect”.

For `CC(=O)O[C@@H]1CC[C@@]2(C)[C@@H](CC[C@]3(C)[C@@H]2CC=C2[C@@H]4[C@@H](C)[C@H](C)CC[C@]4(C)CC[C@]23C)[C@@]1(C)C(=O)O`, the IC50 in assay [1] is more than 100 µM.

As for `CC(=O)O[C@@H]1CC[C@@]2(C)[C@@H](CC[C@]3(C)[C@@H]2C(=O)C=C2[C@@H]4[C@@H](C)[C@H](C)CC[C@]4(C)CC[C@]23C)[C@@]1(C)C(N)=O`, in assay [1], the half-maximal inhibitory concentration (IC50) was found to be 5.02 µM.

`CCNC(=O)n1ncc2c1[C@](C)(C(=O)O)[C@@H]1CC[C@]3(C)[C@H](C(=O)C=C4[C@@H]5[C@@H](C)[C@H](C)CC[C@]5(C)CC[C@]43C)[C@@]1(C)C2` showed an IC50 in assay [1] of 5.8 µM.

As to `C[C@H]1[C@H](C)CC[C@]2(C)CC[C@]3(C)C(=CC(=O)[C@@H]4[C@@]5(C)CC[C@H](N)[C@](C)(C(=O)O)[C@@H]5CC[C@]43C)[C@H]12`, the IC50 in assay [1] came out at 5.32 µM.

As for `CC(=O)O[C@@H]1CC[C@@]2(C)[C@@H](CC[C@]3(C)[C@@H]2C(=O)C=C2[C@@H]4[C@@H](C)[C@H](C)CC[C@]4(C)CC[C@]23C)[C@@]1(C)C(=O)O` [AKBA], the IC50 in assay [1] amounted to 7.45 µM.

`CC(=O)O[C@@H]1CC[C@@]2(C)[C@@H](CC[C@]3(C)[C@@H]2C(=O)C=C2[C@@H]4[C@@H](C)[C@H](C)CC[C@]4(C)CC[C@]23C)[C@@]1(C)C(=O)N1CCOCC1` yielded an IC50 in assay [1] of more than 100 µM.

In assay [1], `CC(=O)O[C@@H]1CC[C@@]2(C)[C@@H](CC[C@]3(C)[C@@H]2C(=O)C=C2[C@@H]4[C@@H](C)[C@H](C)CC[C@]4(C)CC[C@]23C)[C@@]1(C)C(=O)Nc1ccncc1` displayed an IC50 of more than 100 µM.

`CC(=O)O[C@@H]1CC[C@@]2(C)[C@@H](CC[C@]3(C)[C@@H]2C(=O)C=C2[C@@H]4[C@@H](C)[C@H](C)CC[C@]4(C)CC[C@]23C)[C@@]1(C)C(=O)NN`: the IC50 in assay [1] was more than 100 µM.

In assay [1], `C[C@H]1[C@H](C)CC[C@]2(C)CC[C@]3(C)C(=CC(=O)[C@@H]4[C@@]5(C)Cc6cnoc6[C@](C)(C(=O)O)[C@@H]5CC[C@]43C)[C@H]12` showed a half-inhibitory concentration (IC50) of 9.92 µM.

In turn, `CC(=O)O[C@@H]1CC[C@@]2(C)[C@@H](CC[C@]3(C)[C@@H]2C(=O)C=C2[C@@H]4[C@@H](C)[C@H](C)CC[C@]4(C)CC[C@]23C)[C@@]1(C)C(=O)N1CCN(C)CC1` yielded a half-maximal inhibitory concentration (IC50) in assay [1] of 70.3 µM.

Regarding `CC(C)COC(=O)n1ncc2c1[C@](C)(C(=O)O)[C@@H]1CC[C@]3(C)[C@H](C(=O)C=C4[C@@H]5[C@@H](C)[C@H](C)CC[C@]5(C)CC[C@]43C)[C@@]1(C)C2`, the IC50 in assay [1] is 3.12 µM.

`COC(=O)[C@]1(C)[C@@H]2CC[C@]3(C)[C@H](C(=O)C=C4[C@@H]5[C@@H](C)[C@H](C)CC[C@]5(C)CC[C@]43C)[C@@]2(C)CC[C@H]1OC(C)=O`: the IC50 in assay [1] is 4.6 µM.

In turn, `C[C@H]1[C@H](C)CC[C@]2(C)CC[C@]3(C)C(=CC(=O)[C@@H]4[C@@]5(C)CC[C@@H](OC(=O)C(F)(F)F)[C@](C)(C(=O)O)[C@@H]5CC[C@]43C)[C@H]12` came in with an IC50 in assay [1] of 5.13 µM.

In assay [1], `CC(=O)O[C@H]1CC[C@@]2(C)[C@@H](CC[C@]3(C)[C@@H]2C(=O)C=C2[C@@H]4[C@@H](C)[C@H](C)CC[C@]4(C)CC[C@]23C)[C@@]1(C)C(=O)O` returned a half-inhibitory concentration (IC50) of 35.8 µM.

Consider `C[C@H]1[C@H](C)CC[C@]2(C)CC[C@]3(C)C(=CC(=O)[C@@H]4[C@@]5(C)Cc6cnn(C(=O)Nc7ccccc7)c6[C@](C)(C(=O)O)[C@@H]5CC[C@]43C)[C@H]12`, for which the IC50 in assay [1] worked out at 9.11 µM.

Take `CC(=O)O[C@@H]1CC[C@@]2(C)[C@@H](CC[C@]3(C)[C@@H]2C(=O)C=C2[C@@H]4[C@@H](C)[C@H](C)CC[C@]4(C)CC[C@]23C)[C@@]1(C)C(=O)N1CCCNCC1`: the IC50 in assay [1] was 2.79 µM.

Turning to `C[C@H]1[C@H](C)CC[C@]2(C)CC[C@]3(C)C(=CC(=O)[C@@H]4[C@@]5(C)Cc6c([nH]c7ccccc67)[C@](C)(C(=O)O)[C@@H]5CC[C@]43C)[C@H]12`, inhibition in assay [1] was half-maximal at 8.22 µM (IC50).

With `CC(=O)O[C@@H]1CC[C@@]2(C)[C@@H](CC[C@]3(C)[C@@H]2C(=O)C=C2[C@@H]4[C@@H](C)[C@H](C)CC[C@]4(C)CC[C@]23C)[C@@]1(C)C(=O)N(C)CCN(C)C`, the midpoint of inhibition in assay [1], the IC50, lay at 5.05 µM.

On to `CC(=O)O[C@@H]1CC[C@@]2(C)[C@@H](CC[C@]3(C)[C@@H]2C(=O)C=C2[C@@H]4[C@@H](C)[C@H](C)CC[C@]4(C)CC[C@]23C)[C@@]1(C)C(=O)N1CCCCC1`, for which the 50% inhibitory concentration (IC50) in assay [1] amounted to 35.8 µM.

Turning to `C[C@H]1[C@H](C)CC[C@]2(C)CC[C@]3(C)C(=CC(=O)[C@@H]4[C@@]5(C)CC/C(=N\O)[C@](C)(C(=O)O)[C@@H]5CC[C@]43C)[C@H]12`, the half-maximal inhibitory concentration (IC50) in assay [1] came out at 10.8 µM.

`C[C@H]1[C@H](C)CC[C@]2(C)CC[C@]3(C)C(=CC(=O)[C@@H]4[C@@]5(C)CC[C@H](O)[C@](C)(C(=O)O)[C@@H]5CC[C@]43C)[C@H]12`: the 50% inhibitory concentration (IC50) in assay [1] turned out to be 27.2 µM.

In turn, `CCOC(=O)C(=O)O[C@@H]1CC[C@@]2(C)[C@@H](CC[C@]3(C)[C@@H]2C(=O)C=C2[C@@H]4[C@@H](C)[C@H](C)CC[C@]4(C)CC[C@]23C)[C@@]1(C)C(=O)O` registered an IC50 in assay [1] of more than 100 µM.

In assay [1], `CCNC(=O)[C@]1(C)[C@@H]2CC[C@]3(C)[C@H](C(=O)C=C4[C@@H]5[C@@H](C)[C@H](C)CC[C@]5(C)CC[C@]43C)[C@@]2(C)CC[C@H]1OC(C)=O` yielded an IC50 of more than 100 µM.

Compound `CC(=O)O[C@@H]1CC[C@@]2(C)[C@@H](CC[C@]3(C)[C@@H]2C(=O)C=C2[C@@H]4[C@@H](C)[C@H](C)CC[C@]4(C)CC[C@]23C)[C@@]1(C)C(=O)N1CCNCC1` registered an IC50 in assay [1] of 2.36 µM. Further, in assay [2], the Activity result was “Dose-dependent effect”.

For the compound `CC(=O)n1ncc2c1[C@](C)(C(=O)O)[C@@H]1CC[C@]3(C)[C@H](C(=O)C=C4[C@@H]5[C@@H](C)[C@H](C)CC[C@]5(C)CC[C@]43C)[C@@]1(C)C2`, half-maximal inhibition in assay [1] (IC50) was put at 9.27 µM.

Consider `CC(=O)O[C@@H]1CC[C@@]2(C)[C@@H](CC[C@]3(C)[C@@H]2C(=O)C=C2[C@@H]4[C@@H](C)[C@H](C)CC[C@]4(C)CC[C@]23C)[C@@]1(C)C(=O)NC1CCNCC1`, for which 8.23 µM corresponded to half-maximal inhibition in assay [1] (IC50).

On to `C[C@H]1[C@H](C)CC[C@]2(C)CC[C@]3(C)C(=CC(=O)[C@@H]4[C@@]5(C)Cc6cnn(C(=O)c7ccccc7)c6[C@](C)(C(=O)O)[C@@H]5CC[C@]43C)[C@H]12`, for which the 50% inhibitory concentration (IC50) in assay [1] worked out at 6.31 µM.

Regarding `CC(=O)O[C@@H]1CC[C@]2(C)[C@H]3C(=O)C=C4[C@@H]5[C@@H](C)[C@H](C)CC[C@]5(C)CC[C@@]4(C)[C@]3(C)CC[C@H]2[C@@]1(C)C#N`, the IC50 in assay [1] was more than 100 µM.
